Assay results published in PMC3221803 (Journal of neuroscience methods, 2011).
Where “and” joins values, the source holds several entries; their conditions need not be identical. Identical values can stand only once. Like-named read-outs stand apart in the source and are kept apart here.

Legend:
[1] = target: T1, hNET (Homo sapiens, UniProt P23975); experiment: biochemical; format: binding
[2] = target: T1, hNET; conditions: intact cells, 25°C
[3] = target: T1, hNET; conditions: read-out: IC50 for inhibition of [^3H]NE uptake; ref Eshleman et al., 1999; cited from earlier work

T1 sequence (P23975 whole entry): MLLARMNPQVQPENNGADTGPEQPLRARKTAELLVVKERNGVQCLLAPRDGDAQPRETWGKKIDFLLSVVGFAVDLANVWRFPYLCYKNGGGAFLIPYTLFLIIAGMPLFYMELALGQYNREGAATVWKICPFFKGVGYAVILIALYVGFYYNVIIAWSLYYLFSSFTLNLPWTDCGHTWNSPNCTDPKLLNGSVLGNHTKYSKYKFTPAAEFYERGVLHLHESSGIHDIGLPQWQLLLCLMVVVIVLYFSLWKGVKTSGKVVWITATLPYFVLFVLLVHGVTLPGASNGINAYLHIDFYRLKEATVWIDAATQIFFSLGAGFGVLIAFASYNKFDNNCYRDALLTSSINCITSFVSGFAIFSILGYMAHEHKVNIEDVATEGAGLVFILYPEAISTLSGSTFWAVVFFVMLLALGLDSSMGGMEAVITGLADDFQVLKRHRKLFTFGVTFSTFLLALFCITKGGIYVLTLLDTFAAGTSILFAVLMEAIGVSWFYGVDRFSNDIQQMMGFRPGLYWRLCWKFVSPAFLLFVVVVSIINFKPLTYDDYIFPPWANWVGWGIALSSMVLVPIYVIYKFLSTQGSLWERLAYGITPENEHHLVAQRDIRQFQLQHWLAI

| Compound | Time to maximal [^3H]CFT binding [1] [min] | Kd ([1]; Kd of CFT) [nM] | Kd ([1]; Kd of [^3H]CFT binding) | Time to maximal [^3H]CFT binding [2] [min] | IC50 [3] [nM] | Potency in inhibiting [^3H]CFT binding relative to [^3H]NE uptake (Ki ratio) [1] |
| --- | --- | --- | --- | --- | --- | --- |
| COC(=O)[C@H]1[C@@H](c2ccc(F)cc2)C[C@@H]2CC[C@H]1N2C [CFT, 2β-carbomethoxy-3β-(4-fluorophenyl)-tropane] | 15 | 18 ± 5 | 35.7 nM and 22.1 nM and 34.5 nM | 15 | 33.3 | – |
| OC1(c2ccc(Cl)cc2)c2ccccc2C2=NCCN21 (stereo not shown) [mazindol] | – | – | – | – | – | weaker |
| CN1[C@@H]2CC[C@H]1C[C@@H](OC(c1ccccc1)c1ccccc1)C2 [benztropine] | – | – | – | – | – | equipotent |
